Measurements reported in ChEMBL document CHEMBL1201862, “PubChem BioAssay data set” (2004).
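Dose response: 5 concentrations. Exposure: 48 h. Format: 96-well plates. Endpoint: linear interpolation; highest concentration if not reached. GI50 is the concentration that inhibits growth by half.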 Calls of active or inactive are those of the source. Cut-off read from the data, not from the text of the source: active = GI50 up to about 1.1 µM and inactive = higher.

Columns and labels:
Experiment in all cases: inhibition of tumour cell growth, NCI panel, 48 h
ACHN = test system: ACHN
COLO 205 = test system: COLO 205
HOP-92 = test system: HOP-92
HT-29 = test system: HT-29
K562 = test system: K562
NCI-H226 = test system: NCI-H226
RPMI-8226 = test system: RPMI-8226
RXF 393 = test system: RXF 393
SNB-19 = test system: SNB-19
TK-10 = test system: TK-10
U-251 = test system: U-251
UACC-257 = test system: UACC-257
UO-31 = test system: UO-31
CCRF-CEM = test system: CCRF-CEM
EKVX = test system: EKVX
NCI-H522 = test system: NCI-H522
HL-60 = test system: HL-60

Measured: GI50

CC(=O)N1CCC(=O)/C(=C/c2ccccc2)C1
inactive: ACHN 22.1 µM | COLO 205 34.6 µM | HOP-92 33.1 µM | HT-29 20.3 µM | K562 37.8 µM | NCI-H226 > 100 µM | RPMI-8226 42.7 µM | RXF 393 22.8 µM | SNB-19 > 100 µM | TK-10 97.3 µM | U-251 17.1 µM | UACC-257 > 100 µM | UO-31 > 100 µM

CC1=C(C(=O)Nc2ccccc2)C(c2ccc(Cl)c(Cl)c2)C(C(=O)Nc2ccccc2)=C(C)N1
inactive: ACHN 12.1 µM | CCRF-CEM 5.06 µM | COLO 205 15.4 µM | EKVX 16.6 µM | HT-29 12.2 µM | NCI-H522 11.6 µM | RXF 393 8.61 µM | SNB-19 12.9 µM | TK-10 33.9 µM | U-251 14.5 µM | UACC-257 12.7 µM | UO-31 13.2 µM

COC(=O)[C@@H]1Cc2c([nH]c3ccccc23)[C@H](c2ccccc2)N1
inactive: ACHN 38.3 µM | CCRF-CEM 37.3 µM | COLO 205 20 µM | EKVX 44.2 µM | HL-60 29.9 µM | HOP-92 44.9 µM | HT-29 49.3 µM | K562 45.2 µM | NCI-H226 71.8 µM | NCI-H522 21.7 µM | SNB-19 37.6 µM | TK-10 33 µM | U-251 47.8 µM | UACC-257 41.8 µM | UO-31 29.6 µM

O=C(c1ccc(O)cc1)C1c2c3c(cc(O)c2C(c2ccc(O)cc2)C1c1cc(O)cc(O)c1)OC(c1ccc(O)cc1)C3c1cc2c(cc1O)OC(c1ccc(O)cc1)C2c1cc(O)cc(O)c1 (stereo not given)
inactive: ACHN > 12.5 µM | CCRF-CEM > 12.5 µM | COLO 205 > 12.5 µM | EKVX > 12.5 µM | HL-60 > 12.5 µM | HOP-92 > 12.5 µM | K562 > 12.5 µM | NCI-H226 > 12.5 µM | NCI-H522 > 12.5 µM | RPMI-8226 > 12.5 µM | SNB-19 > 12.5 µM | TK-10 > 12.5 µM | U-251 > 12.5 µM | UACC-257 > 12.5 µM | UO-31 > 12.5 µM

CCOC(=O)/C(=C/c1ccc(C#N)cc1)N(CC)CC
inactive: ACHN > 100 µM | CCRF-CEM > 100 µM | COLO 205 > 100 µM | EKVX > 100 µM | HL-60 > 100 µM | HOP-92 > 100 µM | HT-29 > 100 µM | K562 > 100 µM | NCI-H226 > 100 µM | NCI-H522 > 100 µM | RPMI-8226 > 100 µM | TK-10 > 100 µM | U-251 > 100 µM | UACC-257 > 100 µM | UO-31 > 100 µM
